Among the data in ChEMBL document CHEMBL6071160, “Identification of a novel 10-hydroxyevodiamine prodrug as a potent topoisomerase inhibitor with improved aqueous solubility for treatment of hepatocellular carcinoma” (Eur J Med Chem, 2024) are inhibition and Activity values, retold here.

Activity calls are given as the source filed them. The rule behind the calls is not given here.

Experiment [1] deals with T1, DNA topoisomerase 1 (Homo sapiens) (UniProt P11387).
T1 sequence (whole entry): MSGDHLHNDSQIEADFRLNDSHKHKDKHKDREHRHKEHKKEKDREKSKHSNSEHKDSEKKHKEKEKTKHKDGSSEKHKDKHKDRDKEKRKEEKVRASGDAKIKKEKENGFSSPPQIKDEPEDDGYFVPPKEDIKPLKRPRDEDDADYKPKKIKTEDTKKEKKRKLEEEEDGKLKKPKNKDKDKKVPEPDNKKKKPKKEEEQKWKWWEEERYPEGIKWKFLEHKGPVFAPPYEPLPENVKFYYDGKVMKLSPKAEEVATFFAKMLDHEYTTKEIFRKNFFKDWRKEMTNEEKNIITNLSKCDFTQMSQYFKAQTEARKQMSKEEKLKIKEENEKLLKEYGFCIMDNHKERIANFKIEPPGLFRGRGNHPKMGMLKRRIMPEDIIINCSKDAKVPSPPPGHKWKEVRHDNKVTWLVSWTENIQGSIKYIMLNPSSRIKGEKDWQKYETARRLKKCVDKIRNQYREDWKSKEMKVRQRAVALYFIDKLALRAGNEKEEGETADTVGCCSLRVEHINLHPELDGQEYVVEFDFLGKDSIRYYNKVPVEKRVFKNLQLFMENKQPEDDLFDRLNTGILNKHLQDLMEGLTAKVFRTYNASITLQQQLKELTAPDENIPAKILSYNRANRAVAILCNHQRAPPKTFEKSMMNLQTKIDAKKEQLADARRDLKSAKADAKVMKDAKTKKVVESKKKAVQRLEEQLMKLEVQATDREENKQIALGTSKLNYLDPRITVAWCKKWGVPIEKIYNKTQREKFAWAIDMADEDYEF
Kind of experiment: Inhibition of DNA topoisomerase 1 (unknown origin) assessed as relaxation of supercoiled plasmid pBR322 DNA at 25 to 100 uM incubated for 15 mins measured after 30 mins addition of ethidium bromide by agarose gel electrophoresis. The settings on record: dose 25-100 µM, time 45.0 min.

In another experiment the test system is SK-HEP1. Kind of experiment: Induction of cell cycle arrest in human SK-HEP1 cells assessed as accumulation of cells at G2 phase 80 nM measured after 24 hrs by flow cytometric assay (reference value: 22.41%). Type of experiment: functional. Background: In flow cytometry, cells or beads pass a laser one at a time.

As to `C[N+](C)(C)CCC(=O)Oc1ccc2[nH]c3c(c2c1)CCN1C(=O)c2cc(F)cc(F)c2N(c2cccc(F)c2)C31.[I-]` (configuration not stated), in experiment [1], the inhibition result was “Active”. Also, the Activity with SK-HEP1 is 68.55%.
